Values belong to the compound of their own block, whether it stands above or below them.
What was measured:
[1] = Experimental: (§1) Different samples of the current solubilizing compound cycloalkyl toluate was combined with available sunscreens Escalol S, avobenzone and oxybenzone at 25° C. […] Solubility was checked for cyclohexyl ester in various sunscreen actives such as bemotrizinol, ethylhexyl triazone, avobenzone & benzophenone-3 in comparison to phenethyl benzoate.
[2] = Comparison of solubilizers combined with sunscreens: clear solution or crystal formation; type: physicochemical; conditions: 25° C., FIG. 6
Experimental: as §1

Compound: Cc1cccc(C(=O)OCC2CCCCC2)c1 [Cyclohexylmethanol 3-Toluate]
- Solubility of Escalol S at 25° C. [1]: 30%

Compound: Cc1ccccc1C(=O)OC1CCCCC1 [Cyclohexyl 2-Toluate]
- Solubility of Escalol S at 25° C. [1]: 37%

Compound: O=C(OCCc1ccccc1)c1ccccc1 [Phenethyl benzoate, 2-phenylethyl benzoate, reference compound]
- Solubility @ 25° C. Avobenzone [1]: 20
- Solubility @ 25° C. Escalol S [1]: 22
- Solubility @ 25° C. Oxybenzone [1]: 34
- Solution appearance when combined with Escalol S, avobenzone and oxybenzone [2]: crystal formations

Compound: Cc1cccc(C(=O)OC2CCCCC2)c1 [Cyclohexyl 3-Toluate]
- Solubility of Escalol S at 25° C. [1]: 35%

Compound: Cc1cccc(C(=O)OC2CCCC2)c1 [Cyclopentyl 3-Toluate]
- Solubility of Escalol S at 25° C. [1]: 34%

The remaining lines, values ahead:

- Solubility @ 25° C. Avobenzone [1]: 25
- Solubility @ 25° C. Escalol S [1]: 36
- Solubility @ 25° C. Oxybenzone [1]: 32
- Solubility of Avobenzone at 25° C. [1]: 25%
- Solubility of Escalol S at 25° C. [1]: 36%
- Solubility percentages of sunscreen active in the solubilizer [1]: 22-33%
Compound: Cyclohexyl Toluate

- Solubility of Escalol S at 25° C. [1]: 36%
Compound: Cc1ccc(C(=O)OC2CCCCC2)cc1 [Cyclohexyl 4-Toluate]
